Paper PMC9538480, “Rutin bioconjugates as potential nutraceutical prodrugs: An in vitro and in ovo toxicological screening” (Frontiers in Pharmacology, 2022)

Legend:
in vitro [1] = format: cell-based, rat; details: rat
Description: (§1) To evaluate the in vitro effect of rutin esters (REs) on cells’ viability, the MTT technique was applied following a 24 h treatment of H9c2(2-1), HepaRG, and HaCaT cells with RUT-O and RUT-L (1, 10, 25, 50, and 100 µM). The parent compounds (PCs)—RUT, OA, and LA were also tested. DMSO was used as solvent for all test compounds (RUT, OA, LA, RUT-O, and RUT-L). The impact of DMSO at tested concentrations (1, 10, 25, 50, and 100 µM) was also assessed in vitro. At the end of the treatment, fresh media (100 µl) and the MTT reagent (10 µl) were added in each well, and the plates were incubated for 3 h at 37°C. The final steps were as follows: addition of the solubilization solution (100 µl/well), incubation of the plates at room temperature for 30 min, protected from light, and absorbance measurement at two wavelengths (570 and 630 nm) using Cytation 5 (BioTek Instruments Inc., Winooski, VT, United States). The results were expressed as percentage (%) of viable cells normalized to control cells (unstimulated cells).

H9c2(2-1) cells [2] = assay: in vitro; format: cell-based, rat; details: H9c2(2-1), lowest concentrations (1 and 10 µM), 24 h
Description: as §1

HUVEC endothelial cells = details: ref Lu et al., 2010; cited from earlier work
[3] = tested on: trophoblast-like Swan71 cells; parameters: method as in Shrestha et al., 2019; details: 24 h of treatment, ref Shrestha et al., 2019; cited from earlier work
H9c2(2-1) cells [4] = format: cell-based, rat; details: 100 µM, 24 h, Hoechst 33342
Description: (§2) The potential toxicity of 100 μM RUT, OA, LA, RUT-O, and RUT-L at nuclear level was tested by applying the Hoechst 33342 staining assay protocol according to the manufacturer’s (Thermo Fisher Scientific, Inc., Waltham, MA, United States) recommendations. In brief, H9c2(2-1), HepaRG, and HaCaT cells were seeded in 12-well plates (10^5 cells/1.5 ml/well) and treated with the test compounds for 24 h. After the stimulation period, the media was removed, and the staining solution diluted 1:2000 in PBS was added (500 µl/well). The plates were incubated for 10 min at room temperature, protected from light. Finally, the staining solution was washed with PBS and the pictures were taken using Cytation 1 (BioTek Instruments Inc., Winooski, VT, United States) and analyzed by the means of Gen5™ Microplate Data Collection and Analysis Software (BioTek Instruments Inc., Winooski, VT, United States). Staurosporine (STP) 5 µM was selected as positive control for apoptosis.

in vitro [5] = format: cell-based, human; details: human
Description: as §1

[6] = tested on: H9c2(2-1), HaCaT, and HepaRG cells; format: cell-based; details: 100 µM, 24 h
Description: To verify the impact of PCs (RUT, OA and LA) and REs (RUT-O and RUT-L) on the morphology and confluence of H9c2(2-1), HaCaT, and HepaRG cells, a microscopic examination was performed. The cells were observed under bright field illumination and photographed at the end of the 24 h treatment period using Cytation 1 (BioTek Instruments Inc., Winooski, VT, United States). The photographs were processed using the Gen5™ Microplate Data Collection and Analysis Software (BioTek Instruments Inc., Winooski, VT, United States).

HepaRG cells = format: cell-based, human; details: 100 µM, 24 h, Hoechst 33342
Description: as §2

HaCaT cells = format: cell-based, human; details: 100 µM, 24 h, Hoechst 33342
Description: as §2

chorioallantoic membrane = assay: HET-CAM in ovo irritant potential; format: in vivo, Gallus domesticus; details: 5 min after application
Description: To perform a toxicological screening and to verify the irritant potential of the RUT-O and RUT-L were used chicken eggs (Gallus domesticus). Specifically, the eggs were prepared as follows: 1) after being washed and disinfected with 70% ethanol (v/v), the eggs were placed in an incubator in a horizontal posture; 2) on the fourth day of incubation, a small hole was made through which a volume of approximately 7–8 ml of albumen was extracted in order to facilitate the detachment of the chorioallantoic membrane from the inner shell of the egg; 3) on the fifth day of incubation, a window was cut in the upper part of the egg to allow the visualization of the blood vessels, which was then covered with adhesive tape and the eggs were placed in the incubator until the day of the beginning of the experiment. Using the Hen’s Egg Test—Chorioallantoic Membrane (HET-CAM) assay, the potential in ovo toxicity of the samples was evaluated. […] [Kis et al., 2022]). […] In order to observe any vascular effects, a stereomicroscope (Discovery 8 Stereomicroscope Zeiss, Göttingen, and Germany) was used, and images were taken with a Zeiss Axio CAM 105 color camera before and 5 min after the application of the samples. The same experimental protocol was applied for the parent compounds—RUT, OA, and LA.

HaCaT = tested on: HaCaT; parameters: method as in Carullo et al., 2019; details: 1 μM; ref Carullo et al., 2019; cited from earlier work

Structure (SMILES): CCCCC/C=C\C/C=C\CCCCCCCC(=O)O [LA, linoleic acid]
- viability at 24 h, 50 µM (in vitro [1]): 87.2%
- viability at 24 h, 100 µM (in vitro [1]): 84.2%
- effect on cell viability (H9c2(2-1) cells [2]): stimulatory effect
- concentrations suppressing HUVEC endothelial cells growth (HUVEC endothelial cells): higher than 300 µM
- decrease in the viability compared to vehicle control [3]: 10%
- nuclear morphology changes (H9c2(2-1) cells [4]): no significant nuclear alterations
- viability at 24 h, 100 µM (in vitro [5]): 86.9%
- round cells floating in the culture medium ([6]; bright field): several round cells floating in the culture medium
- impact on cells' adherence or confluency ([6]; compared to control cells): no negative impact
- nuclear morphology changes (HepaRG cells): no significant nuclear alterations
- nuclear morphology changes (HaCaT cells): no significant nuclear alterations
- vascular irritation signs (hemorrhage, lysis, coagulation) in words (chorioallantoic membrane): No signs of vascular irritation

Structure (SMILES): CCCCCCCC/C=C\CCCCCCCC(=O)Oc1c(-c2ccc(O)c(O)c2)oc2cc(O)cc(O)c2c1=O [Quercetin-3-oleate]
- stimulation of HaCaT wound healing (HaCaT): up to 51%
